Key:
[1] = tested on: patients with advanced solid tumors; assay: QT evaluation study, by time point ECG analysis; format: in vivo, human; details: before vs after prophylactic palonosetron 0.25 mg i.v., cycle 1 day 1
Experimental: This was a QT evaluation study (EudraCT No. 2015-000206-18; ClinicalTrials.gov: NCT02451007) performed at a subset of sites participating in a multicenter, open-label, exploratory, phase II basket clinical trial (EudraCT No: 2014-003773-42; ClinicaTrials.gov: NCT02454972) conducted in patients with selected advanced solid tumors. The schedule used in this QT evaluation study was that evaluated in the basket trial: lurbinectedin 3.2 mg/m^2 given as a 1-h i.v. infusion q3wk.
A screening ECG was collected between day -10 and day -2 before the first lurbinectedin infusion (day 1 of cycle 1) and transmitted to the central ECG laboratory to confirm the patient’s eligibility.
On day 1 of cycle 1, two baseline triplicate ECGs (three 10-s digital ECGs in close succession) were collected: one before administration of prophylactic medication or pre-dose 1, and the other after antiemetic prophylactic medication (palonosetron 0.25 mg i.v.) and before the start of the lurbinectedin infusion or pre-dose 2 (also on cycle 2).
In cycle 1 and cycle 2, the following triplicate ECGs were collected 5–10 min before their time-matched PK time points: 5 min before end of the lurbinectedin infusion (EOI), 30 min, 1, 3, 24, 72 (only on cycle 1), and 168 h after EOI.
A 12-lead automated digital ECG recorder [Mortara Instrument (Milwaukee, WI, USA) ELI-150 ECG 12-lead digital recorder] was provided by a third-party central ECG laboratory (eResearchTechnology, Inc., Philadelphia, PA, USA). Analysis and reporting of ECG data were performed by a limited number of skilled readers who were blinded to treatment time point. ECG review of a particular patient was performed by a single reader. Interval duration measurements were collected using computer-assisted caliper placements on three consecutive beats. A cardiologist then verified the interval durations and performed the morphology analysis, noting any T-U wave complex compatible with an effect on cardiac repolarization. The ECG analysis was conducted in Lead II or in Lead V5 if Lead II was not analyzable. If Lead V5 was not analyzable, then Lead V2 was used, and followed by the most appropriate lead if necessary. The mean of triplicate ECG measures at each time point for each patient was used for analyses.
Fridericia’s formula [6] is currently considered the most accurate method for correcting the effect of HR on QT interval [7], and was used as the main method for HR correction for QT (QTcF). Nevertheless, graphical inspection of QTcF and QT corrected by Bazett’s formula (QTcB) versus RR interval plots and statistical comparison of resulting squared linear regression slopes (R^2) was performed.
The primary endpoint was the change in QTc corrected by the Fridericia’s formula (ΔQTcF) between each scheduled post-baseline ECG time point and baseline at cycle 1. A patient was considered evaluable for the primary endpoint if he/she had baseline and one or more post-baseline ECG assessments.
Secondary endpoints were the ΔQTcF/lurbinectedin plasma concentration relationship, and change in other ECG parameters (i.e., HR, QRS, and PR).
The primary comparison was ΔQTcF at each ECG time point. A non-inferiority criterion of 20 ms was used to establish the absence of post-baseline QTc prolongation when compared to baseline. An analysis of variance model with mixed effects was fitted, with ΔQTc data as the dependent variable and ECG time point as the fixed effects, and patient as random effect.
Using the estimated least square means (LSM) and intra-patient standard deviation (Std) obtained from this model, a two-sided 90% confidence interval (CI) was calculated for each LSM ΔQTc. Non-inferiority was to be concluded if the upper bound (UB) of the one-sided 95% CI fell below 20 ms at each ECG time point.

[2] = tested on: patients; details: cited from earlier work

In the case of `O=C1c2cccc3c2[C@H](CCC3)CN1[C@@H]1CN2CCC1CC2` [prophylactic medication, palonosetron, reference compound], the “difference between mean pre-dose 1 and mean pre-dose 2 QTcF” value [1] is reported as 1.3 ms.

In the case of `COc1cc2c(cc1O)CCN[C@]21CS[C@@H]2c3c(OC(C)=O)c(C)c4c(c3[C@H](COC1=O)N1[C@@H]2[C@H]2c3c(cc(C)c(OC)c3O)C[C@@H]([C@@H]1O)N2C)OCO4` [trabectedin], the heart rate change ([2]; 3-h i.v. infusion, largest increases at 4 h after start of infusion) is listed as “heart rate increased slightly” and the cardiac risk profile [2] is listed as “low cardiac risk profile”.

From publication PMC7801313, “Effect of lurbinectedin on the QTc interval in patients with advanced solid tumors: an exposure–response analysis” (Cancer Chemotherapy and Pharmacology, 2020)
